Test results from patent US7226904B2, “Agents and methods for promoting bone growth” (priority 2000, dated 2007).
Peptide text beside a SMILES is read from it. * marks the point of attachment. αGalNAc = CC(=O)N[C@@H]1[C@@H](O)[C@@H](O)[C@@H](CO)O[C@@H]1*

The compounds below were run on Ovariectomized Sprague-Dawley rats (assay: High-dose administration to ovariectomized Sprague-Dawley rats). Conditions: 100 ng/g to 30 μg/g body weight every day for 60 days.
Assay type: in vivo
Description: Ovariectomized Sprague-Dawley rats were allowed to lose bone from 60 days. Thereafter, animals were injected with glycosylated fADBP or non-glycosylated fADBP, at concentrations ranging from 100 ng/g of body weight to 30 μg/g of body weight every day for 60 days.

Row | Compound | toxic effect
1 | CC(=O)N[C@H]1[C@@H](O[C@H](C)[C@H](NC(=O)[C@@H]2CCCN2C(=O)[C@@H](N)[C@@H](C)O)C(=O)N[C@@H](CCC(=O)O)C(=O)N[C@@H](CC(C)C)C(=O)N[C@@H](C)C(=O)N[C@@H](CCCCN)C(=O)N[C@@H](CC(C)C)C(=O)N[C@H](C(=O)N[C@@H](CC(N)=O)C(=O)N[C@@H](CCCCN)C(=O)N[C@@H](CCCNC(=N)N)C(=O)N[C@@H](CO)C(=O)N[C@@H](CCC(=O)O)C(=O)O)C(C)C)O[C@H](CO)[C@H](O)[C@@H]1O [Glycosylated fADBP] (H-TPT(αGalNAc)ELAKLVNKRSE-OH) | no detectable toxic effect

The compounds below were run on normal adult rats (assay: Systemic (subcutaneous) administration to normal adult rats, pQCT bone densitometry of tibia). Conditions: 0.4 ng/g B.W. every 2 days for two weeks, vs saline.
Assay type: in vivo, rat
Description: After humane sacrifice, long bones were collected from rats subjected to agent treatment as described in Examples 1 and 2. The bones were evaluated using densitometry techniques with the Norland Medical Systems pQCT scanner. The densitometric parameters that were determined included: • 1. Total Content, which is the mineral content of the bone within a 1 mm slice. • 2. Total Density, which is the mean density of the total bone. • 3. Trabecular Content, which is the mineral content of the trabecular bone within a 1 mm slice. • 4. Trabecular Density, which is the mean density of the trabecular bone • 5. Cortical Content, which is the mineral content of the cortical bone within a 1 mm slice. • 6. Cortical Density, which is the mean density of the […]. • 7. Periosteal circumference in the “circular ring model” in mm. • 8. Endosteal circumference in the “circular ring model” in mm. • 9. Total area (mm^2), which is the cross sectional area of the bone after the soft tissue has been peeled off. • 10. Cortical area (mm^2), which is the area assigned to be pure cortical. • 11. Trabecular area (mm^2), which is the cross sectional area of the trabecular area after the cortical and subcortical area has been peeled off. Effects of Agents on Bone Density:
Non-glycosylated fADBP, at a dosage of 0.4 ng/g of body weight, was administered by subcutaneous injection into normal adult rats every two days for two weeks. The effect of this treatment on bone density and DpD levels was assayed as described above.
Glycosylated fADBP, at a dosage of 5.0 ng/g of body weight was administered by subcutaneous injection into normal adult rats every two days for two weeks. The effect of this treatment on bone density was assayed as described above.
Non-glycosylated DBP peptides of different lengths, at a dosage of 0.4 ng/g of body weight, were administered by subcutaneous injection into normal adult rats every two days for two weeks. The DBP peptides were derived from fADBP and comprised the first 3, 4, 5, 6, 7, 8, 9, 10, 11, 12, and 13 amino acids of SEQ ID NO. 1. After humane sacrifice, the tibia was collected from control and DBP peptide treated rats and analyzed using densitometry techniques with the Norland Medical Systems pQCT scanner. Statistical analysis was performed

Row | Compound | Total Bone Density
2 | DBP peptide 3: first 3 amino acids of SEQ ID NO. 1 (Thr Pro Thr) (TPT; listed as Homo sapiens) | significantly increased
3 | DBP peptide 4: first 4 amino acids of SEQ ID NO. 1 (Thr Pro Thr Glu) (TPTE; listed as Homo sapiens) | significantly increased
4 | DBP peptide 5: first 5 amino acids of SEQ ID NO. 1 (Thr Pro Thr Glu Leu) (TPTEL; listed as Homo sapiens) | significantly increased
5 | DBP peptide 6: first 6 amino acids of SEQ ID NO. 1 (Thr Pro Thr Glu Leu Ala) (TPTELA; listed as Homo sapiens) | significantly increased
6 | DBP peptide 7: first 7 amino acids of SEQ ID NO. 1 (Thr Pro Thr Glu Leu Ala Lys) (TPTELAK; listed as Homo sapiens) | significantly increased
7 | DBP peptide 8: first 8 amino acids of SEQ ID NO. 1 (Thr Pro Thr Glu Leu Ala Lys Leu) (TPTELAKL; listed as Homo sapiens) | significantly increased
8 | DBP peptide 10: first 10 amino acids of SEQ ID NO. 1 (Thr Pro Thr Glu Leu Ala Lys Leu Val Asn) (TPTELAKLVN; listed as Homo sapiens) | significantly increased
9 | DBP peptide 11: first 11 amino acids of SEQ ID NO. 1 (Thr Pro Thr Glu Leu Ala Lys Leu Val Asn Lys) (TPTELAKLVNK; listed as Homo sapiens) | significantly increased
10 | DBP peptide 12: first 12 amino acids of SEQ ID NO. 1 (Thr Pro Thr Glu Leu Ala Lys Leu Val Asn Lys Arg) (TPTELAKLVNKR; listed as Homo sapiens) | significantly increased
